Data on one molecule can be found in article PMC6714992 (Clinical and Applied Thrombosis/Hemostasis, 2019).

As usually defined, the IC50 is the midpoint of a concentration-inhibition curve. Read a low IC50 as greater potency.

The target of the assay is factor Xa (Bos taurus, UniProt P00743). As to the kind of experiment: kinetic amidolytic. Format: biochemical.
Chain of factor Xa (P00743 41-180): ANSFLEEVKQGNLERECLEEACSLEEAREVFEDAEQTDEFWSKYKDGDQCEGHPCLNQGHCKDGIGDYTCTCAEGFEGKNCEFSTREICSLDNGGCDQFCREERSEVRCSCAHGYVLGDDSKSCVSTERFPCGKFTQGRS
Chain of factor Xa (P00743 234-492): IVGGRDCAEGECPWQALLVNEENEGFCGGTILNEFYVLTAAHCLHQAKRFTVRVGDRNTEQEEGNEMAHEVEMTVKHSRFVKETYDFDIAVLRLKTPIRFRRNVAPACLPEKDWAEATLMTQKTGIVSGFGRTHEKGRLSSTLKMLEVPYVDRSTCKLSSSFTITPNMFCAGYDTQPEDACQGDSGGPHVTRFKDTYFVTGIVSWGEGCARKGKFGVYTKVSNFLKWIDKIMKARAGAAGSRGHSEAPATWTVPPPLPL

As to `COc1ccc(NC(=O)c2ccc(C(=N)N(C)C)cc2)c(C(=O)Nc2ccc(Cl)cn2)c1` [betrixaban], the IC50 was above 2880 nM.
